Source: patent EP4745137A1 (Gluetacs Therapeutics (Shanghai) Co., Ltd., priority 2023, dated 2025)

Assays:
WEE1 = biological target: T1, WEE1 (Homo sapiens, UniProt P30291+Q96SW2); assay: Western-blot assay of substrate protein degradation in hPBMCs, WEE1; type: cell-based; conditions: 24 hours of compound treatment
T1 construct: endogenous in cells; host or cells: hPBMCs (Milecell Biotechnologies)

NCI-H1975 = assay: Tumor cell proliferation inhibition (CellTiter-Meiluncell Luminescent Cell Viability Assay), NCI-H1975; conditions: Homo sapiens, NCI-H1975, 96 h, read-out: inhibitory activity (IC50, nM) against tumor cells proliferation, H1975
CK1α = biological target: T2, CK1α (Homo sapiens, UniProt P48729+Q96SW2); assay: Western-blot assay of substrate protein degradation in hPBMCs, CK1α; type: cell-based; conditions: 24 hours of compound treatment
T2 construct: endogenous in cells; host or cells: hPBMCs (Milecell Biotechnologies)

[1] = biological target: T3, human Cereblon WT GST-tagged protein (Homo sapiens, UniProt Q96SW2); assay: CRBN-binding affinity by HTRF (CEREBLON BINDING kit); conditions: HTRF inhibitory activity, CEREBLON BINDING kit; read-out: HTRF IC50
T3 construct: purchased CISBIO 64BDCRBNPEH

IKZF2 = biological target: T4, IKZF2 (Homo sapiens, UniProt Q96SW2+Q9UKS7); assay: Western-blot assay of substrate protein degradation in hPBMCs, IKZF2; type: cell-based; conditions: 24 hours of compound treatment
T4 construct: endogenous in cells; host or cells: hPBMCs (Milecell Biotechnologies)

GSPT1 = biological target: T5, GSPT1 (Homo sapiens, UniProt P15170+Q96SW2); assay: Western-blot assay of substrate protein degradation in hPBMCs, GSPT1; type: cell-based; conditions: 24 hours of compound treatment
T5 construct: endogenous in cells; host or cells: hPBMCs (Milecell Biotechnologies)

[2] = test system: Human acute T lymphocytic leukemia cells (Molt-4); assay: Tumor cell proliferation inhibition (CellTiter-Meiluncell Luminescent Cell Viability Assay), Molt-4; conditions: MOLT-4, 96 h, read-out: inhibitory activity (IC50, nM) against tumor cells proliferation, Molt 4
IKZF1 = biological target: T6, IKZF1 (Homo sapiens, UniProt Q13422+Q96SW2); assay: Western-blot assay of substrate protein degradation in hPBMCs, IKZF1; type: cell-based; conditions: 24 hours of compound treatment
T6 construct: endogenous in cells; host or cells: hPBMCs (Milecell Biotechnologies)

[3] = test system: Human breast cancer cells (MDA-MB-231); assay: Tumor cell proliferation inhibition (CellTiter-Meiluncell Luminescent Cell Viability Assay), MDA-MB-231; conditions: for IC50: MDA-MB-231, 96 h, read-out: inhibitory activity (IC50, nM) against tumor cells proliferation, MDA-MB-231; for inhibition at 0.01 µM: MDA-MB-231, read-out: Inhibition rate (%) at 10 nM; for inhibition at 0.5 µM: MDA-MB-231, read-out: Inhibition rate (%) at 500 nM
IKZF3 = biological target: T7, IKZF3 (Homo sapiens, UniProt Q96SW2+Q9UKT9); assay: Western-blot assay of substrate protein degradation in hPBMCs, IKZF3; type: cell-based; conditions: 24 hours of compound treatment
T7 construct: endogenous in cells; host or cells: hPBMCs (Milecell Biotechnologies)

[4] = compounds tested at 50 nM and 500 nM (concentration of the table not stated)
[5] = 50 nM and 500 nM tested (concentration behind the class not stated)

T3 sequence (Q96SW2 whole entry): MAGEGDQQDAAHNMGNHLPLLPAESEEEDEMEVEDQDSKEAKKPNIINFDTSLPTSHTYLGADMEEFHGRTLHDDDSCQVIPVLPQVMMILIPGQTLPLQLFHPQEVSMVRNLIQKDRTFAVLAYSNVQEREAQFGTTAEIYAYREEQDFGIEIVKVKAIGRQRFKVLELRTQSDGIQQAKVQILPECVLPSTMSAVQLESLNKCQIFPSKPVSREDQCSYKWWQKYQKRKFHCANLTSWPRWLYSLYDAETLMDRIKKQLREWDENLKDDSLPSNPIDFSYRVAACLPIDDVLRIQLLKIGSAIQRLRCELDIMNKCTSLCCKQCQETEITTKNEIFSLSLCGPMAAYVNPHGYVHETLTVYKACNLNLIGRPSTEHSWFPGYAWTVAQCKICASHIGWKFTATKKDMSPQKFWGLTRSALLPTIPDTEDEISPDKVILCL
T6 sequence (Q13422 whole entry): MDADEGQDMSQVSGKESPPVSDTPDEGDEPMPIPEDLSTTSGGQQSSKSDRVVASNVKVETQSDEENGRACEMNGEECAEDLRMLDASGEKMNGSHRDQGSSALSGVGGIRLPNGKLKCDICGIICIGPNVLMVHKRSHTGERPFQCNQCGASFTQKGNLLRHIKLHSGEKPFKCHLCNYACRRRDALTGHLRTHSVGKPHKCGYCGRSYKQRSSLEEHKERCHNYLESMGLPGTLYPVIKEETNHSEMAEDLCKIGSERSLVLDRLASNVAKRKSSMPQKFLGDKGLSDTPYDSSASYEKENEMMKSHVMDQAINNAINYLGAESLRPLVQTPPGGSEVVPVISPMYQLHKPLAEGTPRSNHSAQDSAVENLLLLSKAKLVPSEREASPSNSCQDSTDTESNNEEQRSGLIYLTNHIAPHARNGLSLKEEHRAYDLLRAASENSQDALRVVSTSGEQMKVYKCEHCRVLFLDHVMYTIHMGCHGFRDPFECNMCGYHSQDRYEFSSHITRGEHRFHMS
T6 sequence (Q96SW2 whole entry): as the sequence (Q96SW2 whole entry) above
T6 sequence (Q16531 whole entry partner): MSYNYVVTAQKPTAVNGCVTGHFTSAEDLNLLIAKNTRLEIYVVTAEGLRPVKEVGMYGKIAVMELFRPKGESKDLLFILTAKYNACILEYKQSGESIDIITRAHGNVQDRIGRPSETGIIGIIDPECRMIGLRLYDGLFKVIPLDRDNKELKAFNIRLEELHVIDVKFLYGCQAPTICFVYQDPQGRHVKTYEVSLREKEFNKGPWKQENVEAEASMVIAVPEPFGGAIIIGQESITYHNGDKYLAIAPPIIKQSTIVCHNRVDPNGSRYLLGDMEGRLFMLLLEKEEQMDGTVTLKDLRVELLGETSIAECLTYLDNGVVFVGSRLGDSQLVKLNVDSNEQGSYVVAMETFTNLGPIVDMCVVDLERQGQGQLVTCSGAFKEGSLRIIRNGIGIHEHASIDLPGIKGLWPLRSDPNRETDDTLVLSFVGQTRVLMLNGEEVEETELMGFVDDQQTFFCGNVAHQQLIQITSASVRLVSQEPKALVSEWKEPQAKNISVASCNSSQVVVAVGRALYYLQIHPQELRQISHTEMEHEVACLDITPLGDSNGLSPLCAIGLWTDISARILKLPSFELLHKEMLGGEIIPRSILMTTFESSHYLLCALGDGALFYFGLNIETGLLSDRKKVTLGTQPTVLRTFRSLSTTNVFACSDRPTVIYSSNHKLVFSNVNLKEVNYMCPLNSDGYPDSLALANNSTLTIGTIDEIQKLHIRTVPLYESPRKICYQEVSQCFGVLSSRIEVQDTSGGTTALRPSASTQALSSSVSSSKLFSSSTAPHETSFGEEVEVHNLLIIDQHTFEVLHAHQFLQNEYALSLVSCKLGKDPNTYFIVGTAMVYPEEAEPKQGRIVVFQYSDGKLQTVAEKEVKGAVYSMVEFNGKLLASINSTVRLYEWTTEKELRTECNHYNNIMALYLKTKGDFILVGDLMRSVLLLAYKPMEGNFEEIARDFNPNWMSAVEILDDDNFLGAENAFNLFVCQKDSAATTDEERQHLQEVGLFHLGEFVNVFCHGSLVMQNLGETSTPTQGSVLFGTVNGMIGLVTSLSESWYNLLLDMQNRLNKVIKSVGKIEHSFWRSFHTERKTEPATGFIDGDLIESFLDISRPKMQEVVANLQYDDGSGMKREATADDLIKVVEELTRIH
T1 sequence (P30291 whole entry): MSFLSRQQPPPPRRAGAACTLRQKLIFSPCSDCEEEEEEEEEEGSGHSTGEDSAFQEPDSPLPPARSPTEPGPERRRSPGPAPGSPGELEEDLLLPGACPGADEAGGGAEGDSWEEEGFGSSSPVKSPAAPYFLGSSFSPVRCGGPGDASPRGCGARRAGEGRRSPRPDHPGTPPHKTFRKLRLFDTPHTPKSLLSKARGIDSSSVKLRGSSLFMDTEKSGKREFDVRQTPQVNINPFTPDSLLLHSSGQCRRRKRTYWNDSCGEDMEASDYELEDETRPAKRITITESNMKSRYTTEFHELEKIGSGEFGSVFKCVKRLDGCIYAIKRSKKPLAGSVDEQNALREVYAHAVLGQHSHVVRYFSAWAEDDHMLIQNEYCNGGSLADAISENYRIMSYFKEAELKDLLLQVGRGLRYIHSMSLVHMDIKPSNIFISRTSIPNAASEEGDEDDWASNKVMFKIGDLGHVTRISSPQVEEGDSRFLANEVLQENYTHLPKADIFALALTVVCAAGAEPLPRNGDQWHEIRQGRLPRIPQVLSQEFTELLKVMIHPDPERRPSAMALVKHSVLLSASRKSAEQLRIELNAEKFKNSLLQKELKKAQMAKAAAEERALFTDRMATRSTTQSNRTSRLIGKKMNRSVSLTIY
T1 sequence (Q96SW2 whole entry): as the sequence (Q96SW2 whole entry) above
T1 sequence (Q16531 whole entry partner): as the sequence (Q16531 whole entry partner) above
T7 sequence (Q9UKT9 whole entry): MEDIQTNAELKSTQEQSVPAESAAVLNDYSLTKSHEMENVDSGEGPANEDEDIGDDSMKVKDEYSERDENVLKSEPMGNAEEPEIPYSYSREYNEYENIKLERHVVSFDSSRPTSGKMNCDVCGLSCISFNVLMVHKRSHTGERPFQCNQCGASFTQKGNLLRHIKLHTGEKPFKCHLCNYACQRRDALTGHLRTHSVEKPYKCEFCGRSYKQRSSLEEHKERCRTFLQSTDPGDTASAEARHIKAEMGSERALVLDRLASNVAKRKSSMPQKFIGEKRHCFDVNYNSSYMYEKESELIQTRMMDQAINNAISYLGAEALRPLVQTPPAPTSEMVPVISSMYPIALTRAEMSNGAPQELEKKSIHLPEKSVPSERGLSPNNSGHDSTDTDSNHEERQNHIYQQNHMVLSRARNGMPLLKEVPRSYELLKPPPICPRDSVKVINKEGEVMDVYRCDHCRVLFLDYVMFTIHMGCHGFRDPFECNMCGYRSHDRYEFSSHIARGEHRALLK
T7 sequence (Q96SW2 whole entry): as the sequence (Q96SW2 whole entry) above
T7 sequence (Q16531 whole entry partner): as the sequence (Q16531 whole entry partner) above
T2 sequence (P48729 whole entry): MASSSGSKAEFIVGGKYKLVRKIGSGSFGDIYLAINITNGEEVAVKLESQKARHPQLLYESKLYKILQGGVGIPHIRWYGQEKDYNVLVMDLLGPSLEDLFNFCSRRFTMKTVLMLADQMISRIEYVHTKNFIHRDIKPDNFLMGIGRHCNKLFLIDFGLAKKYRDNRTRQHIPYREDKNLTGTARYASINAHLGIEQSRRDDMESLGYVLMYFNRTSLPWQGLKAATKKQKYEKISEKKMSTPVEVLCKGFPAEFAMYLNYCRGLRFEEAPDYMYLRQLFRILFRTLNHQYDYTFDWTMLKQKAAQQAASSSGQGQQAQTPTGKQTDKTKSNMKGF
T2 sequence (Q96SW2 whole entry): as the sequence (Q96SW2 whole entry) above
T2 sequence (Q16531 whole entry partner): as the sequence (Q16531 whole entry partner) above
T5 sequence (P15170 whole entry): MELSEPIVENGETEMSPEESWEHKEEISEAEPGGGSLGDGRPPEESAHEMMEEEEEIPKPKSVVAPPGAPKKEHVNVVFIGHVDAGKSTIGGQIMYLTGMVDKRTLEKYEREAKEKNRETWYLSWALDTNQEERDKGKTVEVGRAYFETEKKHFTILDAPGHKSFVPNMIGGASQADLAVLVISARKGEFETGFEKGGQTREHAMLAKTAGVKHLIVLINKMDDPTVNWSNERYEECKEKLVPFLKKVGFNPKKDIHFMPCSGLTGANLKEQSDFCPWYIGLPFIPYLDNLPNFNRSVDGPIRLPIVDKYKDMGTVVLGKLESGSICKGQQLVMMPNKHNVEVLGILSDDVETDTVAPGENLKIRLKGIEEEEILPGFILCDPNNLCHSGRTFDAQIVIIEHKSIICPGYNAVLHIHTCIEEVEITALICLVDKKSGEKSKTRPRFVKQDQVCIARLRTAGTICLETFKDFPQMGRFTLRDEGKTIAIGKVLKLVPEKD
T5 sequence (Q96SW2 whole entry): as the sequence (Q96SW2 whole entry) above
T5 sequence (Q16531 whole entry partner): as the sequence (Q16531 whole entry partner) above

Compound	Weel substrate protein remaining % (WEE1; [4])	IC50 (NCI-H1975)	CK1a substrate protein remaining % (CK1α; [4])	IC50 [1]	IKZF2 substrate protein remaining % (IKZF2; [4])	GSPT1 substrate protein remaining % (GSPT1; [4])	IC50 [2]	IKZF 1 substrate protein remaining % (IKZF1; [4])	IC50 [3]	IKZF3 substrate protein remaining % (IKZF3; [4])	inhibition at 0.01 µM [3]	inhibition at 0.5 µM [3]	Weel substrate protein remaining % (WEE1; [5])	CK1a substrate protein remaining % (CK1α; [5])	IKZF2 substrate protein remaining % (IKZF2; [5])	GSPT1 substrate protein remaining % (GSPT1; [5])	IKZF 1 substrate protein remaining % (IKZF1; [5])	IKZF3 substrate protein remaining % (IKZF3; [5])
O=C1CCC(N2Cc3cc(CN4CCC(c5c[nH]c6ncccc56)CC4)ccc3C2=O)C(=O)N1 (stereo not shown) [GT-04603, 3-(5-((4-(1H-pyrrolo[2,3-b]pyridin-3-yl)piperidin-1-yl)methyl)-1-oxoisoindolin-2-yl)piperidine-2,6-dione]	A (0% ≤ substrate protein remaining % ≤ 80%)	100 to 500 nM	A (0% ≤ substrate protein remaining % ≤ 80%)	500 to 1000 nM	A (0% ≤ substrate protein remaining % ≤ 80%)	A (0% ≤ substrate protein remaining % ≤ 80%)	10 to 50 nM	A (0% ≤ substrate protein remaining % ≤ 80%)	100 to 500 nM	A (0% ≤ substrate protein remaining % ≤ 80%)								
O=C1CCC(N2Cc3cc(CN4CCC(N5CCCc6cc(F)ccc65)CC4)ccc3C2=O)C(=O)N1 (stereo not shown) [GT-04691, 3-(5-((4-(6-fluoro-3,4-dihydroquinolin-1(2H)-yl)piperidin-1-yl)methyl)-1-oxoisoindolin-2-yl)piperidine-2,6-dione]	A (0% ≤ substrate protein remaining % ≤ 80%)	500 to 1000 nM	A (0% ≤ substrate protein remaining % ≤ 80%)	500 to 1000 nM	A (0% ≤ substrate protein remaining % ≤ 80%)	A (0% ≤ substrate protein remaining % ≤ 80%)	10 to 50 nM	A (0% ≤ substrate protein remaining % ≤ 80%)	500 to 1000 nM	A (0% ≤ substrate protein remaining % ≤ 80%)								
O=C1CCC(N2Cc3cc(CN4C5CC4CN(c4cccc(Cl)c4Cl)C5)ccc3C2=O)C(=O)N1 (stereo not shown) [GT-04712, 3-(5-((3-(2,3-dichlorophenyl)-3,6-diazabicyclo[3.1.1]heptan-6-yl)methyl)-1-oxoisoindolin-2-yl)piperidine-2,6-dione]	B (80%< substrate protein remaining %≤ 100%)	100 to 500 nM	A (0% ≤ substrate protein remaining % ≤ 80%)	500 to 1000 nM	B (80%< substrate protein remaining %≤ 100%)	A (0% ≤ substrate protein remaining % ≤ 80%)	10 to 50 nM	B (80%< substrate protein remaining %≤ 100%)	50 to 100 nM	A (0% ≤ substrate protein remaining % ≤ 80%)								
O=C1CCC(N2Cc3cc(CN4CC(n5cnc6cc(F)ccc65)C4)ccc3C2=O)C(=O)N1 (stereo not shown) [GT-04716, 3-(5-((3-(5-fluoro-1H-benzo[d]imidazol-1-yl)azetidin-1-yl)methyl)-1-oxoisoindolin-2-yl)piperidine-2,6-dione]	B (80%< substrate protein remaining %≤ 100%)		B (80%< substrate protein remaining %≤ 100%)	500 to 1000 nM	B (80%< substrate protein remaining %≤ 100%)	A (0% ≤ substrate protein remaining % ≤ 80%)	100 to 500 nM	B (80%< substrate protein remaining %≤ 100%)		B (80%< substrate protein remaining %≤ 100%)								
Cc1nc(C2CCN(Cc3ccc4c(c3)CN(C3CCC(=O)NC3=O)C4=O)CC2)c2ccsc2n1 (stereo not shown) [GT-04726, 3-(5-((4-(2-methylthieno[2,3-d]pyrimidin-4-yl)piperidin-1-yl)methyl)-1-oxoisoindolin-2-yl)piperidine-2,6-dione]	A (0% ≤ substrate protein remaining % ≤ 80%)		A (0% ≤ substrate protein remaining % ≤ 80%)	500 to 1000 nM	A (0% ≤ substrate protein remaining % ≤ 80%)	A (0% ≤ substrate protein remaining % ≤ 80%)	10 to 50 nM	A (0% ≤ substrate protein remaining % ≤ 80%)		A (0% ≤ substrate protein remaining % ≤ 80%)								
Cc1ccsc1C1=CCN(Cc2ccc3c(c2)C(=O)N(C2CCC(=O)NC2=O)C3=O)CC1 (stereo not shown) [GT-04732, 2-(2,6-dioxopiperidin-3-yl)-5-((4-(3-methylthiophen-2-yl)-3,6-dihydropyridin-1(2H)-yl)methyl)isoindoline-1,3-dione]	A (0% ≤ substrate protein remaining % ≤ 80%)		A (0% ≤ substrate protein remaining % ≤ 80%)	500 to 1000 nM	B (80%< substrate protein remaining %≤ 100%)	A (0% ≤ substrate protein remaining % ≤ 80%)	50 to 100 nM	B (80%< substrate protein remaining %≤ 100%)	500 to 1000 nM	B (80%< substrate protein remaining %≤ 100%)								
O=C1CCC(N2C(=O)c3ccc(CN4CCN(c5ncccc5Cl)CC4)cc3C2=O)C(=O)N1 (stereo not shown) [GT-07843, 5-((4-(3-chloropyridin-2-yl)piperazin-1-yl)methyl)-2-(2,6-dioxopiperidin-3-yl)isoindoline-1,3-dione]											30 to 40%	30 to 40%						
O=C1CCC(N2C(=O)c3ccc(CN4CCN(c5nc(N6CCCC6)nc6c5SCC6)CC4)cc3C2=O)C(=O)N1 (stereo not shown) [GT-08004, 2-(2,6-dioxopiperidin-3-yl)-5-((4-(2-(pyrrolidin-1-yl)-6,7-dihydrothieno[3,2-d]pyrimidin-4-yl)piperazin-1-yl)methyl)isoindoline-1,3-dione]											30 to 40%	40 to 50%	B (80%< substrate protein remaining %≤ 100%)	B (80%< substrate protein remaining %≤ 100%)	A (0% ≤ substrate protein remaining % ≤ 80%)	A (0% ≤ substrate protein remaining % ≤ 80%)	A (0% ≤ substrate protein remaining % ≤ 80%)	A (0% ≤ substrate protein remaining % ≤ 80%)
O=C1CCC(N2C(=O)c3ccc(CN4CCN(c5nc(N6CCC6)nc6c5SCC6)CC4)cc3C2=O)C(=O)N1 (stereo not shown) [GT-08005, 5-((4-(2-(azetidin-1-yl)-6,7-dihydrothieno[3,2-d]pyrimidin-4-yl)piperazin-1-yl)methyl)-2-(2,6-dioxopiperidin-3-yl)isoindoline-1,3-dione]											20 to 30%	30 to 40%	B (80%< substrate protein remaining %≤ 100%)	B (80%< substrate protein remaining %≤ 100%)	A (0% ≤ substrate protein remaining % ≤ 80%)	B (80%< substrate protein remaining %≤ 100%)	A (0% ≤ substrate protein remaining % ≤ 80%)	A (0% ≤ substrate protein remaining % ≤ 80%)
